The species entered for one experiment is Homo sapiens. Description: Activation of human Farnesoid X receptor/Retinoic X receptor at 5 uM.
Experiment [1] is described as follows: Inhibition of human Farnesoid X receptor/Retinoid X receptor heterodimer; Antagonistic activity. The format is functional.
Another experiment has as its target T1, Bile acid receptor (Homo sapiens, UniProt Q96RI1).
T1 sequence (Q96RI1 whole entry): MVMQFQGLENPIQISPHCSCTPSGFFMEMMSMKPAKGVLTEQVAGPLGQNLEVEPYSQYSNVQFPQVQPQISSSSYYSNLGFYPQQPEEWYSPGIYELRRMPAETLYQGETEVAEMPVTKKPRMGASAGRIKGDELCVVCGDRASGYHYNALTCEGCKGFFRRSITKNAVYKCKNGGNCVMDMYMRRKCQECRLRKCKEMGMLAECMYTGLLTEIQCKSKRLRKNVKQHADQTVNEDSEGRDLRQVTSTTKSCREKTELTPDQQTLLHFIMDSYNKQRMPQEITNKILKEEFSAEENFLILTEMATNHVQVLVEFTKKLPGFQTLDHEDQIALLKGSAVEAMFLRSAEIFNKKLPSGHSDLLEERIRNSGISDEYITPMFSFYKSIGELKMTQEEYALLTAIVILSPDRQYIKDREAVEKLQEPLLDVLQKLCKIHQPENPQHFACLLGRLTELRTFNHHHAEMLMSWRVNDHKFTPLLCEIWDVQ
Briefly: Activation of human farnesoid X receptor in FRET assay.

Consider six molecules from ChEMBL document CHEMBL1145168, “Farnesoid X receptor: from structure to potential clinical applications” (J Med Chem, 2005).

For `CC1(C)CCC(C)(C)c2cc(C(Cc3ccc(C(=O)O)cc3)[Si](C)(C)C)ccc21` (stereo unspecified), the Fold activation in the experiment filed under Homo sapiens was 91. For `CCCCCCOc1c(\C(C)=C/C=C/C(C)=C/C(=O)O)cc(C(C)C)cc1C(C)C`, in experiment [1], the IC50 was < 10 nM. The molecule `CN(C)c1ccc(-c2ccc(CN(C(=O)C3CCCCC3)c3cccc(/C=C/C(=O)O)c3)cc2)cc1` yielded a 50% effective concentration (EC50) on Bile acid receptor of 255 nM. `O=C(O)/C=C/c1cccc(N(Cc2ccc(-c3ccc4c(c3)OCO4)cc2)C(=O)C2CCCCC2)c1` had an EC50 on Bile acid receptor of 222 nM. In the experiment listed under Homo sapiens, `CCCC/C(=C\c1ccc(C(=O)O)cc1)c1ccc2c(c1)C(C)(C)CCC2(C)C` came in with a Fold activation of 85. In the case of `O=C(O)/C=C/c1cccc(N(Cc2ccc(/C=C/c3ccccc3)cc2)C(=O)C2CCCCC2)c1`, at Bile acid receptor, it took 255 nM to reach a half-maximal effect (EC50).

The term IC50 denotes the concentration needed to halve the response being measured. Higher therefore signals weaker potency. Usually EC50 stands for the concentration that produces a half-maximal response. Higher therefore signals a less potent agent.
